Test results published in the NIST ThermoML archive (doi:10.1016/j.fluid.2007.07.016).

Assay: xn = mol fraction of the nth substance listed
Settings: 101 kPa, Liquid; for viscosity: Capillary tube (Ostwald / Ubbelohde) method; for speed of sound: Linear variable-path acoustic interferometer

Cc1cc(C)cc(C)c1 [1,3,5-trimethylbenzene] + C1CCOC1
Settings | speed of sound, 288.15 K [m/s] | speed of sound, 298.15 K [m/s] | speed of sound, 308.15 K [m/s] | speed of sound, 318.15 K [m/s] | viscosity, 288.15 K [mPa·s] | viscosity, 298.15 K [mPa·s] | viscosity, 308.15 K [mPa·s] | viscosity, 318.15 K [mPa·s]
x2 = 0 | 1412.3 | 1369.8 | 1325.2 | 1279 | 0.7592 | 0.6572 | 0.5792 | 0.5066
x2 = 0.0735 | 1406.8 | 1363.6 | 1318.5 | 1272.2 | 0.7428 | 0.6449 | 0.5698 | 0.5004
x2 = 0.1513 | 1400.3 | 1356.6 | 1311.2 | 1264.9 | 0.7259 | 0.6321 | 0.5602 | 0.4943
x2 = 0.2274 | 1393.5 | 1349.5 | 1303.9 | 1257.7 | 0.7089 | 0.6192 | 0.5502 | 0.4875
x2 = 0.2986 | 1386.7 | 1342.4 | 1296.7 | 1250.6 | 0.6927 | 0.6066 | 0.5402 | 0.4805
x2 = 0.3672 | 1379.7 | 1335.3 | 1289.6 | 1243.6 | 0.6767 | 0.594 | 0.5301 | 0.4732
x2 = 0.4305 | 1373.5 | 1328.9 | 1283.1 | 1237.3 | 0.6616 | 0.5821 | 0.5203 | 0.4658
x2 = 0.4912 | 1367.5 | 1322.9 | 1277 | 1231.5 | 0.647 | 0.5703 | 0.5106 | 0.4583
x2 = 0.5496 | 1361.9 | 1317.3 | 1271.4 | 1226 | 0.6326 | 0.5586 | 0.5008 | 0.4507
x2 = 0.6055 | 1356.8 | 1312 | 1266.1 | 1220.8 | 0.6186 | 0.5472 | 0.4911 | 0.4429
x2 = 0.6784 | 1350.4 | 1305.4 | 1259.4 | 1214.4 | 0.6 | 0.5318 | 0.4779 | 0.4322
x2 = 0.7516 | 1344 | 1298.8 | 1252.8 | 1207.9 | 0.5809 | 0.5159 | 0.4642 | 0.4208
x2 = 0.828 | 1337.4 | 1292.1 | 1246 | 1201.2 | 0.5609 | 0.499 | 0.4494 | 0.4084
x2 = 0.879 | 1333.2 | 1287.7 | 1241.6 | 1196.9 | 0.5469 | 0.4872 | 0.4388 | 0.3992
x2 = 0.9412 | 1328.2 | 1282.6 | 1236.4 | 1191.8 | 0.5299 | 0.4726 | 0.4258 | 0.3879

C1CCOC1 [tetrahydrofuran] + c1ccccc1
Settings | speed of sound, 288.15 K [m/s] | speed of sound, 298.15 K [m/s] | speed of sound, 308.15 K [m/s] | speed of sound, 318.15 K [m/s] | viscosity, 288.15 K [mPa·s] | viscosity, 298.15 K [mPa·s] | viscosity, 308.15 K [mPa·s] | viscosity, 318.15 K [mPa·s]
x1 = 0.0754 | 1351.7 | 1302.5 | 1256 | 1206.1 | 0.6847 | 0.5973 | 0.536 | 0.4667
x1 = 0.1518 | 1350.7 | 1301.4 | 1254.7 | 1205.1 | 0.6762 | 0.5921 | 0.533 | 0.4665
x1 = 0.223 | 1349.8 | 1300.6 | 1253.6 | 1204.3 | 0.6673 | 0.5863 | 0.529 | 0.4659
x1 = 0.2962 | 1348.5 | 1299.3 | 1252.2 | 1203.2 | 0.6573 | 0.5793 | 0.5237 | 0.4637
x1 = 0.3556 | 1347.4 | 1298.4 | 1251.3 | 1202.5 | 0.6484 | 0.5728 | 0.5186 | 0.4609
x1 = 0.4128 | 1346.3 | 1297.5 | 1250.3 | 1201.8 | 0.6394 | 0.5659 | 0.5128 | 0.4574
x1 = 0.4812 | 1344.6 | 1296 | 1248.8 | 1200.7 | 0.6277 | 0.5568 | 0.505 | 0.4522
x1 = 0.5506 | 1342.7 | 1294.3 | 1247.1 | 1199.4 | 0.6151 | 0.5467 | 0.4961 | 0.4457
x1 = 0.6219 | 1340.5 | 1292.4 | 1245.1 | 1197.8 | 0.6013 | 0.5353 | 0.4858 | 0.4379
x1 = 0.6884 | 1338 | 1290.2 | 1243 | 1196.1 | 0.5875 | 0.5237 | 0.4752 | 0.4295
x1 = 0.7512 | 1335.3 | 1287.9 | 1240.8 | 1194.4 | 0.5739 | 0.512 | 0.4643 | 0.4207
x1 = 0.8119 | 1332.7 | 1285.5 | 1238.6 | 1192.7 | 0.56 | 0.4999 | 0.4529 | 0.4112
x1 = 0.8792 | 1329.3 | 1282.7 | 1236.1 | 1190.7 | 0.5439 | 0.4857 | 0.4394 | 0.3996
x1 = 0.9388 | 1326.3 | 1280.1 | 1233.8 | 1188.9 | 0.5289 | 0.4724 | 0.4265 | 0.3885
x1 = 1 | 1323.1 | 1277.6 | 1231.5 | 1187.2 | 0.5129 | 0.458 | 0.4125 | 0.3762

Cc1cccc(C)c1 [1,3-dimethylbenzene] + C1CCOC1
Settings | speed of sound, 288.15 K [m/s] | speed of sound, 298.15 K [m/s] | speed of sound, 308.15 K [m/s] | speed of sound, 318.15 K [m/s] | viscosity, 288.15 K [mPa·s] | viscosity, 298.15 K [mPa·s] | viscosity, 308.15 K [mPa·s] | viscosity, 318.15 K [mPa·s]
x2 = 0 | 1373.2 | 1326.6 | 1281 | 1243 | 0.6696 | 0.588 | 0.5229 | 0.4684
x2 = 0.0722 | 1370.9 | 1324 | 1278.1 | 1239.4 | 0.6615 | 0.5823 | 0.5193 | 0.4668
x2 = 0.1486 | 1368.1 | 1321 | 1274.8 | 1235.5 | 0.6528 | 0.5762 | 0.5151 | 0.4647
x2 = 0.2134 | 1365.6 | 1318.4 | 1272.1 | 1232.2 | 0.6449 | 0.5703 | 0.511 | 0.4621
x2 = 0.2804 | 1362.9 | 1315.6 | 1269.2 | 1228.7 | 0.6363 | 0.5638 | 0.5061 | 0.4587
x2 = 0.3536 | 1359.7 | 1312.5 | 1265.9 | 1224.9 | 0.6263 | 0.556 | 0.4999 | 0.4542
x2 = 0.4255 | 1356.4 | 1309.3 | 1262.6 | 1221.1 | 0.616 | 0.5477 | 0.4932 | 0.4489
x2 = 0.4864 | 1353.5 | 1306.4 | 1259.7 | 1217.8 | 0.6068 | 0.5401 | 0.4869 | 0.4438
x2 = 0.5476 | 1350.5 | 1303.4 | 1256.6 | 1214.4 | 0.5971 | 0.5321 | 0.48 | 0.4382
x2 = 0.6041 | 1347.5 | 1300.5 | 1253.7 | 1211.1 | 0.5879 | 0.5243 | 0.4732 | 0.4323
x2 = 0.6751 | 1343.6 | 1296.7 | 1249.9 | 1206.9 | 0.5757 | 0.5139 | 0.464 | 0.4241
x2 = 0.7396 | 1339.8 | 1293.1 | 1246.4 | 1203.1 | 0.5642 | 0.5038 | 0.455 | 0.4162
x2 = 0.8005 | 1336.1 | 1289.6 | 1243 | 1199.5 | 0.5529 | 0.4939 | 0.446 | 0.408
x2 = 0.8722 | 1331.6 | 1285.4 | 1238.9 | 1195.1 | 0.5392 | 0.4817 | 0.4347 | 0.3974
x2 = 0.9378 | 1327.3 | 1281.4 | 1235.2 | 1191.1 | 0.5261 | 0.4699 | 0.4237 | 0.387
